# In ChEMBL document CHEMBL4052712, “Design and optimization of highly-selective, broad spectrum fungal CYP51 inhibitors” (Bioorg Med Chem Lett, 2017):
# Legend:
# Cryptococcus neoformans = assay: Inhibition of CYP51 in Cryptococcus neoformans assessed as inhibition of microbe growth incubated for 48 hrs by CLSI M27-A3 guideline based method
# [1] = molecular target: T1, Lanosterol 14-alpha demethylase (Aspergillus) (UniProt B8NUK6+Q9P8R0+G4WW85); assay: Inhibition of CYP51 in Aspergillus fumigatus assessed as inhibition of microbe growth incubated for 48 to 168 hrs by CLSI M27-A3 guideline based method
# [2] = molecular target: T2, Cytochrome P450 11B1, mitochondrial (Homo sapiens, UniProt P15538); assay: Inhibition of CYP11B1 in human hepatocyte microsomes using deoxycortisol substrate by HPLC/MS/MS method; assay type: ADME
# T2 sequence (P15538 whole entry): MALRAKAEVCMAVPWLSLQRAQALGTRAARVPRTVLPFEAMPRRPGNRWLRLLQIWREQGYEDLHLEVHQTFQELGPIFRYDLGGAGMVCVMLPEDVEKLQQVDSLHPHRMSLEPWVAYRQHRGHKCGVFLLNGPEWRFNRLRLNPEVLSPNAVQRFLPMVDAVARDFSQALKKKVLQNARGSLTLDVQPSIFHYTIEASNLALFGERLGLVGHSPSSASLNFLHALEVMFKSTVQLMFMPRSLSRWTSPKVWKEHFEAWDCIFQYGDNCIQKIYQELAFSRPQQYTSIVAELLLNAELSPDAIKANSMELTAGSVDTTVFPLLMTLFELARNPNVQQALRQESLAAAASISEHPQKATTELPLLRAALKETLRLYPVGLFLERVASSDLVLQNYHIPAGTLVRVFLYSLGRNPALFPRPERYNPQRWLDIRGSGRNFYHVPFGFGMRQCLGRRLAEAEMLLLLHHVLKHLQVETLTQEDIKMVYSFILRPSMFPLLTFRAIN
# [3] = molecular target: T1, Lanosterol 14-alpha demethylase (Aspergillus); assay: Inhibition of CYP51 in Aspergillus flavus assessed as inhibition of microbe growth incubated for 48 to 168 hrs by CLSI M27-A3 guideline based method
# [4] = molecular target: T3, Steroid 17-alpha-hydroxylase/17,20 lyase (Homo sapiens, UniProt P05093); assay: Inhibition of CYP17 hydroxylase in human hepatocyte microsomes using pregnenolone substrate by HPLC/MS/MS method; assay type: ADME
# T3 sequence (P05093 whole entry): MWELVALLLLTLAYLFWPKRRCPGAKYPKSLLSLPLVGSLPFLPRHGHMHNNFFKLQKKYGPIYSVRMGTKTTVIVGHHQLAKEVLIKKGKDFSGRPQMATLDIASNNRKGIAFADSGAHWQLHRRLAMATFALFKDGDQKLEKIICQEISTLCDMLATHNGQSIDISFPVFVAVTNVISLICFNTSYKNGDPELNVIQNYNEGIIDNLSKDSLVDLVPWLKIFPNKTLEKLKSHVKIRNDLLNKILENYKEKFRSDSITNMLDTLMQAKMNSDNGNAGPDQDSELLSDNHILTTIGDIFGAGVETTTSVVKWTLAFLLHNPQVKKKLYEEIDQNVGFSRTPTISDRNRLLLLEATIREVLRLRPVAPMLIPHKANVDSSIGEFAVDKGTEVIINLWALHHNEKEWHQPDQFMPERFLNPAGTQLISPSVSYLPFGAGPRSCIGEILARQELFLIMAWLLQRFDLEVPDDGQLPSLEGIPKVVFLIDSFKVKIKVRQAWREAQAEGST
# [5] = molecular target: T4, Lanosterol 14-alpha demethylase (Trichophyton rubrum (strain ATCC MYA-4607 / CBS 118892) (Athlete'sfoot fungus)) (UniProt F2SHH3); assay: Inhibition of CYP51 in Trichophyton rubrum assessed as inhibition of microbe growth incubated for 48 hrs by CLSI M27-A3 guideline based method
# T4 sequence (whole entry): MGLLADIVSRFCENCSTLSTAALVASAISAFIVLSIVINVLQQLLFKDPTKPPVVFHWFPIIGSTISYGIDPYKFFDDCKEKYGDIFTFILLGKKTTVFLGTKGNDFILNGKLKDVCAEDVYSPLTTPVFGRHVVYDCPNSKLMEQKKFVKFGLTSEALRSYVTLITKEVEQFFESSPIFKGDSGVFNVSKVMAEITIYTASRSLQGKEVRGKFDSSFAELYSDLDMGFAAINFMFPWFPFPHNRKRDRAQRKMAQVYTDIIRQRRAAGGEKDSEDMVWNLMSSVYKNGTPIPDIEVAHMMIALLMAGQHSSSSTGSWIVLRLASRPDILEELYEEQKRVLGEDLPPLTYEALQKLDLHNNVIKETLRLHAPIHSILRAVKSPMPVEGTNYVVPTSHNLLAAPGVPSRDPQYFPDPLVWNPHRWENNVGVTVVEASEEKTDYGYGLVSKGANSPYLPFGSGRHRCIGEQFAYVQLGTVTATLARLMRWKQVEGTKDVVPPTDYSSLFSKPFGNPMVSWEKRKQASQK
# [6] = molecular target: T3, Steroid 17-alpha-hydroxylase/17,20 lyase; assay: Inhibition of CYP17 lyase in human hepatocyte microsomes using 17a-hydroxypregnenolone substrate by HPLC/MS/MS method; assay type: ADME
# [7] = molecular target: Lanosterol 14-alpha demethylase (Candida glabrata (strain ATCC 2001 / BCRC 20586 / JCM 3761 / NBRC 0622 /NRRL Y-65 / CBS 138) (Yeast) (Nakaseomyces glabratus)) (UniProt P50859); assay: Inhibition of CYP51 in Candida glabrata assessed as inhibition of microbe growth incubated for 48 hrs by CLSI M27-A3 guideline based method
# Aromatase = molecular target: T5, Aromatase (Homo sapiens, UniProt P11511); assay: Inhibition of CYP19 in human hepatocyte microsomes using testosterone substrate by HPLC/MS/MS method; assay type: ADME
# T5 sequence (P11511 whole entry): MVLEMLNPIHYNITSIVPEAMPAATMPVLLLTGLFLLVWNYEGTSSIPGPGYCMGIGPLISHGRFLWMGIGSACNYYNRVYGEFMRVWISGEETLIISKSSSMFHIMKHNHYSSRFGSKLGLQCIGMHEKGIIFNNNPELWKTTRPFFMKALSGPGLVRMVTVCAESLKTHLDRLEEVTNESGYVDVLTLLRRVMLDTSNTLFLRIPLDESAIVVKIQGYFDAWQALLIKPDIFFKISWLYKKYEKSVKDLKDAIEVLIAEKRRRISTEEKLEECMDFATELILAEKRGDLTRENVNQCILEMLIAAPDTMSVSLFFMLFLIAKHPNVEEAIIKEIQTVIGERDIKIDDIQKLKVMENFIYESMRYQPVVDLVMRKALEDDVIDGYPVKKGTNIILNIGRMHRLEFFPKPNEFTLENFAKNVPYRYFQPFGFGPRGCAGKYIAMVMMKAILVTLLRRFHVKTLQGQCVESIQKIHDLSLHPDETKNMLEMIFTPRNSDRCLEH
# [8] = molecular target: Lanosterol 14-alpha demethylase (Candida albicans (strain SC5314 / ATCC MYA-2876) (Yeast), UniProt P10613); assay: Inhibition of CYP51 in Candida albicans assessed as inhibition of microbe growth incubated for 48 hrs by CLSI M27-A3 guideline based method
# [9] = molecular target: T6, Cytochrome P450 11B2, mitochondrial (Homo sapiens, UniProt P19099); assay: Inhibition of CYP11B2 in human hepatocyte microsomes using deoxycorticosteroid substrate by HPLC/MS/MS method; assay type: ADME
# T6 sequence (P19099 whole entry): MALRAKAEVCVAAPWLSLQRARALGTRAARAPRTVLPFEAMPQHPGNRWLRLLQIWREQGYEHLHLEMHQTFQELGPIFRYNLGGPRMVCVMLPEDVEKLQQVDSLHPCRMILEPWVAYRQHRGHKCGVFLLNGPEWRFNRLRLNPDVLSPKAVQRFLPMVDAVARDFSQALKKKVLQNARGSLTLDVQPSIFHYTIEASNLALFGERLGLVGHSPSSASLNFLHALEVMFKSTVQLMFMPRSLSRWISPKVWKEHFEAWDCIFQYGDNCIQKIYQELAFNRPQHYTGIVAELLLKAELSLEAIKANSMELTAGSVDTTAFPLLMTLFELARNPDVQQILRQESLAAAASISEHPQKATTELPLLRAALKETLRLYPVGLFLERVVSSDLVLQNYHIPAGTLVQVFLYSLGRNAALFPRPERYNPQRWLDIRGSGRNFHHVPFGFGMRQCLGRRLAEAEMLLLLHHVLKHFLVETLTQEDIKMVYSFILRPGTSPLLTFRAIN
# Sequence of Lanosterol 14-alpha demethylase (P10613 whole entry): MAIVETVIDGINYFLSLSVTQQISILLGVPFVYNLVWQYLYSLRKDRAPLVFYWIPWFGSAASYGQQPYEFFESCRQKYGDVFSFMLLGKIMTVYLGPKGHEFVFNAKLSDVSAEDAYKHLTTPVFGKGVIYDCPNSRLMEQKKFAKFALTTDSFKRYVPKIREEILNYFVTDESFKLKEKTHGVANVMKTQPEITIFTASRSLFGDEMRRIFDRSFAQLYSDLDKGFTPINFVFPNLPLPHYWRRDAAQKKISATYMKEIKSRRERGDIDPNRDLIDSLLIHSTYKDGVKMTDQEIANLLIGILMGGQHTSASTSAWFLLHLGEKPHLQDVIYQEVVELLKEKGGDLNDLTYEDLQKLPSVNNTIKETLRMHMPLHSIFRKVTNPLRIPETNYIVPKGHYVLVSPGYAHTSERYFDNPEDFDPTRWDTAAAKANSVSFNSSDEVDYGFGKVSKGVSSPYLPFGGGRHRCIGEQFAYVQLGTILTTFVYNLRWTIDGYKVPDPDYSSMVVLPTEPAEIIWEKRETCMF
# Sequence of Lanosterol 14-alpha demethylase (Candida glabrata (strain ATCC 2001 / BCRC 20586 / JCM 3761 / NBRC 0622 /NRRL Y-65 / CBS 138) (Yeast) (Nakaseomyces glabratus)) (P50859 whole entry): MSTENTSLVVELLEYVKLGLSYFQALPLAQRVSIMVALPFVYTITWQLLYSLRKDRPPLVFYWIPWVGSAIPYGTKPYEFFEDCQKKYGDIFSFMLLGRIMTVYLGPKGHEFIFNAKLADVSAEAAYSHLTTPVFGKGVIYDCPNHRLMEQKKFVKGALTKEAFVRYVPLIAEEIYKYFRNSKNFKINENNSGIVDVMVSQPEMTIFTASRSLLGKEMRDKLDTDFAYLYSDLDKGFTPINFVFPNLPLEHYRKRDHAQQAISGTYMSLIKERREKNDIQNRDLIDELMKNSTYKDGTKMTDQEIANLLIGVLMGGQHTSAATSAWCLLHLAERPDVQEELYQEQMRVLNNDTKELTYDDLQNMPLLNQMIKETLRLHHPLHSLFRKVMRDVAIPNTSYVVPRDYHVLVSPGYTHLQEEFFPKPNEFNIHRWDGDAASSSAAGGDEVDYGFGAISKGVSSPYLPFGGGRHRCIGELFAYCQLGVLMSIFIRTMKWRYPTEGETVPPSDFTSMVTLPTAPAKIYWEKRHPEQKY
structure (smiles),measurement,setting,value
OC(Cn1cncn1)(Cn1cncn1)c1ccc(F)cc1F [FLUCONAZOLE],MIC50,Cryptococcus neoformans,0.25 µg/mL
same,MIC100,[1],> 64 µg/mL
same,IC50,[2],30 µM
same,MIC100,[3],> 64 µg/mL
same,IC50,[4],> 200 µM
same,MIC50,[5],16 µg/mL
same,IC50,[6],> 200 µM
same,MIC50,[7],8 µg/mL
same,IC50,Aromatase,22 µM
same,MIC50,[8],0.5 µg/mL
same,IC50,[9],13 µM
CC[C@@H]([C@H](C)O)n1ncn(-c2ccc(N3CCN(c4ccc(OC[C@@H]5CO[C@@](Cn6cncn6)(c6ccc(F)cc6F)C5)cc4)CC3)cc2)c1=O [POSACONAZOLE],MIC50,Cryptococcus neoformans,0.0078 µg/mL
same,MIC100,[1],0.062 µg/mL
same,IC50,[2],0.31 µM
same,MIC100,[3],0.25 µg/mL
same,IC50,[4],1.8 µM
same,MIC50,[5],0.25 µg/mL
same,IC50,[6],0.042 µM
same,MIC50,[7],0.12 µg/mL
same,IC50,Aromatase,8.4 µM
same,MIC50,[8],0.015 µg/mL
same,IC50,[9],0.021 µM
